The values below come from patent US9446119B2 (priority 2011, dated 2016).

The subject of the assay is PBMCs. Type of assay: cell-based, human.

On to “18 (GVIFLISVIVLVCSCDGVIFLISVIVLVCSCN) [compound 18]”, for which the “S.I. (stimulation index: mean spots per well containing polypeptide/mean spots per background wells)” value came to 2.1.
Regarding CYIFHSDYQLFSDAKA, the “S.I. (stimulation index: mean spots per well containing polypeptide/mean spots per background wells)” value turned out to be 1.1.
In the case of CYILHSDYQLFSDAKA [Polypeptide 6], the “S.I. (stimulation index: mean spots per well containing polypeptide/mean spots per background wells)” value is reported as 3.5 and the “number of subjects recognizing the peptide” value came to 3 subjects.
Consider DTFFRTSPMVIATTDI, for which the “S.I. (stimulation index: mean spots per well containing polypeptide/mean spots per background wells)” value is recorded as 1.1.
Turning to DVLFRLENHAETLRAA, the “S.I. (stimulation index: mean spots per well containing polypeptide/mean spots per background wells)” value came out at 0.7.
Same read-out and setting: the same measure for EVLFRLENHAETLRAA [Polypeptide 21]: 2.5.
Take GVIFLISVIVLVCSCN: the “IFNγ response to the VARV version of the polypeptide” value is listed as “detected” and the “S.I. (stimulation index: mean spots per well containing polypeptide/mean spots per background wells)” value was found to be 2.3.
Turning to KADGDDNEETLKQRLT, the “S.I. (stimulation index: mean spots per well containing polypeptide/mean spots per background wells)” value turned out to be 1.
The same measure, in the same setting: the same measure for LYNKPLYEVNAIITLI: 1.
